Laboratory results: patent US20050282755A1, “Compositions having antimicrobial activity and uses thereof” (priority 2004, published 2005)
≈ marks a conversion by molar mass, not a printed value. Read-outs that look alike come from different tables or passages of the source. Non-standard residues stand in square brackets, D forms with d. Residues, ends and D or L forms follow the SMILES beside them. *: point of attachment. Stearoyl = CCCCCCCCCCCCCCCCCC(=O)*; Lauroyl = CCCCCCCCCCCC(=O)*

How the values were obtained:
[1] = system: Escherichia coli ATCC 25922; test: MIC, NCCLS M7-A6 broth microdilution (Table 9, no superscript); type: cell-based; details: ATCC 25922
How it was run: (§1)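 Broth microdilution in cation-adjusted Mueller Hinton broth, log-phase inoculum giving 5×10^5 to 1×10^6 CFU/milliliter per well. Overnight incubation at 37° C. MIC taken as lowest peptide concentration with no visible turbidity versus a no-peptide control.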

[2] = system: Pseudomonas aeruginosa ATCC 27853; test: as above; type: cell-based; details: ATCC 27853
How it was run: as §1

[3] = system: Staphylococcus epidermidis ATCC 12228; test: as above; type: cell-based; details: ATCC 12228
How it was run: as §1

[4] = system: Propionibacterium acnes ATCC 6919; type: cell-based
How it was run: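 MIC by non-standard broth microdilution in reinforced Clostridial broth, log-phase P. acnes inoculum at 5×10^5 to 1×10^6 CFU/mL. Plates were held anaerobically 48–72 h at 37° C; MIC was the lowest peptide concentration with no visible turbidity relative to the no-peptide control.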

[5] = system: Staphylococcus aureus ATCC 29213; details: ATCC 29213, pH 7.4
[6] = system: Salmonella dublin (Lane); details: pH 7.4
[7] = system: Candida albicans ATCC 18804; test: MIC in yeasts, NCCLS M27-A2 broth microdilution, RPMI 1640 (Table 9, letter e); type: cell-based; details: ATCC 18804
How it was run: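 Broth microdilution per NCCLS M27-A2 in RPMI 1640 with glutamine and phenol red, final inoculum 0.5×10^3–2.5×10^3 CFU/milliliter. Incubated 24 to 48 hours at 37° C; MIC is the lowest peptide concentration with no visible growth.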

[8] = system: IL-12 release; test: Anti-inflammation assay: IL-12 release in PBMCs stimulated by P. acnes (IL-12p70 ELISA); type: cell-based, human
Procedure: An assay that detected reductions in IL-12 released in whole human blood cells (PBMCs) was utilized to detect reductions in inflammation elicited by peptide compositions described herein. The assay utilized the following materials and reagents: whole human blood cells; P. acnes; peptides 55, 67 and 93 from Table 3; IL-12p70 ELISA kit (eBiosciences); RPMI 1640 growth medium; PBS; and a 96-well microtiter plate. PBMCs were prepared from whole human blood cells according to standard procedures and cells were resuspended in RPMI 1640 and 10% FCS. Cells were seeded at 250,000 cells per well in a 96-well microtiter plate and incubated for 90 minutes. […] Controls included untreated cells, P. acnes alone or a peptide alone. The cells were incubated over night at 37° C., and cell supernatants were collected and stored at −80° C. for use in an IL-12 ELISA assay (eBiosciences). A 1:1 dilution of supernatant was utilized to perform the IL-12 ELISA following the protocol provided by the manufacturer.

[9] = system: Staphylococcus aureus ATCC 29213; test: MIC, NCCLS M7-A6 broth microdilution, cation-adjusted Mueller Hinton broth (Table 9, no superscript); type: cell-based; details: ATCC 29213
How it was run: as §1

[10] = system: Salmonella dublin (Lane); test: MIC, NCCLS M7-A6 broth microdilution (Table 9, no superscript); type: cell-based
How it was run: as §1

Compound | MIC E. coli [1] | MIC P. aeruginosa [2] | MIC S. epidermidis [3] | MIC P. acnes [4] | MIC S. aureus [5] | MIC S. dublin [6] | MIC C. albicans [7] | reduction of IL-12 release in PBMs stimulated by P. acnes ([8]; 12.5 to 0.78 micrograms per milliliter) | MIC S. aureus [9] | MIC S. dublin [10] | IC50 ([8]; PBMCs stimulated by P. acnes, over night, read-out: IC50 value, reduction of IL-12 release)
CSCC[C@H](NC(=O)[C@H](Cc1ccccc1)NC(=O)[C@H](CC(N)=O)NC(=O)[C@H](CCCNC(=N)N)NC(=O)[C@H](CO)NC(=O)[C@H](Cc1c[nH]c2ccccc12)NC(=O)[C@H](CC(=O)O)NC(=O)[C@H](CCCNC(=N)N)NC(=O)[C@H](Cc1c[nH]c2ccccc12)NC(=O)[C@H](CCCNC(=N)N)NC(=O)[C@H](CO)NC(=O)[C@H](CCCNC(=N)N)NC(=O)CNC(=O)[C@@H](NC(=O)[C@H](CCCNC(=N)N)NC(=O)[C@H](CO)NC(=O)[C@@H](NC(=O)[C@H](CCCNC(=N)N)NC(=O)[C@@H](NC(C)=O)[C@@H](C)O)C(C)C)[C@@H](C)O)C(=O)N[C@@H](CCCNC(=N)N)C(=O)N[C@@H](C)C(=O)N[C@@H](C)C(=O)N[C@@H](CCCN)C(=O)N[C@@H](CCCN)C(=O)N[C@@H](CCCN)C(=O)N[C@@H](CCCN)C(=O)N[C@@H](CCCN)C(=O)N[C@@H](CCCN)C(=O)N[C@@H](CCCN)C(=O)N[C@@H](CCCN)C(N)=O [Peptide 3, Ac-TRVSRTGRSRWRDWSRNFMRAAOOOOOOOO-NH2] | >64 µg/mL | >64 µg/mL | >64 µg/mL | 6 µg·days/mL | 6b ug/mL | 6b ug/mL |  |  |  |  | 
CSCC[C@@H](NC(=O)[C@@H](Cc1ccccc1)NC(=O)[C@@H](CC(N)=O)NC(=O)[C@@H](CCCNC(=N)N)NC(=O)[C@@H](CO)NC(=O)[C@@H](Cc1c[nH]c2ccccc12)NC(=O)[C@@H](CC(=O)O)NC(=O)[C@@H](CCCNC(=N)N)NC(=O)[C@@H](Cc1c[nH]c2ccccc12)NC(=O)[C@@H](CCCNC(=N)N)NC(=O)[C@@H](CO)NC(=O)[C@@H](CCCNC(=N)N)NC(=O)CNC(=O)[C@H](NC(=O)[C@@H](CCCNC(=N)N)NC(=O)[C@@H](CO)NC(=O)[C@H](NC(=O)[C@@H](CCCNC(=N)N)NC(=O)[C@H](NC(C)=O)[C@H](C)O)C(C)C)[C@H](C)O)C(=O)N[C@H](CCCNC(=N)N)C(=O)N[C@H](C)C(=O)N[C@H](C)C(=O)N[C@H](CCCCN)C(=O)N[C@H](CCCCN)C(=O)N[C@H](CCCCN)C(=O)N[C@H](CCCCN)C(=O)N[C@H](CCCCN)C(=O)N[C@H](CCCCN)C(=O)N[C@H](CCCCN)C(=O)N[C@H](CCCCN)C(N)=O [Peptide 31, Ac-trvsrtgrsrwrdwsrnfmraakkkkkkkk-NH2] | >64 µg/mL | >64 µg/mL | 8 µg/mL (≈ 2.09 µM) | 12.5 µg·days/mL | 3b ug/mL | 6b ug/mL |  |  |  |  | 
CSCC[C@H](NC(=O)[C@H](Cc1ccccc1)NC(=O)[C@H](CC(N)=O)NC(=O)[C@H](CCCNC(=N)N)NC(=O)[C@H](C)NC(=O)[C@H](Cc1c[nH]c2ccccc12)NC(=O)[C@H](CC(=O)O)NC(=O)[C@H](CCCNC(=N)N)NC(=O)[C@H](Cc1c[nH]c2ccccc12)NC(=O)[C@H](CCCNC(=N)N)NC(=O)[C@H](CO)NC(=O)[C@H](CCCNC(=N)N)NC(=O)CNC(=O)[C@@H](NC(=O)[C@H](CCCNC(=N)N)NC(=O)[C@H](C)NC(=O)[C@@H](NC(=O)[C@H](CCCNC(=N)N)NC(=O)[C@@H](NC(C)=O)[C@@H](C)O)C(C)C)[C@@H](C)O)C(=O)N[C@@H](CCCNC(=N)N)C(N)=O [Peptide 37] (Ac-TRVARTGRSRWRDWARNFMR-NH2) | >64 µg/mL | >64 µg/mL | >64 µg/mL | 100 µg·days/mL | 25b ug/mL | 25b ug/mL | 64e ug/mL |  |  |  | 
CCCCCCCCCCCC(=O)NCCCC[C@H](NC(=O)[C@H](CCCNC(=N)N)NC(=O)[C@H](CCSC)NC(=O)[C@H](Cc1ccccc1)NC(=O)[C@H](CC(N)=O)NC(=O)[C@H](CCCNC(=N)N)NC(=O)[C@H](CO)NC(=O)[C@H](Cc1c[nH]c2ccccc12)NC(=O)[C@H](CC(=O)O)NC(=O)[C@H](CCCNC(=N)N)NC(=O)[C@H](Cc1c[nH]c2ccccc12)NC(=O)[C@H](CCCNC(=N)N)NC(=O)[C@H](CO)NC(=O)[C@H](CCCNC(=N)N)NC(=O)CNC(=O)[C@@H](NC(=O)[C@H](CCCNC(=N)N)NC(=O)[C@H](CO)NC(=O)[C@@H](NC(=O)[C@H](CCCNC(=N)N)NC(=O)[C@@H](NC(=O)CCCCCCCCCCC)[C@@H](C)O)C(C)C)[C@@H](C)O)C(N)=O [Peptide 66] (Lauroyl-TRVSRTGRSRWRDWSRNFMRK(Lauroyl)-NH2) |  |  |  | 100 µg·days/mL | 25b ug/mL | 25b ug/mL |  |  |  |  | 
CCCCCCCCCCCCCCCCCC(=O)N[C@H](C(=O)N[C@@H](CCCNC(=N)N)C(=O)N[C@H](C(=O)N[C@@H](CO)C(=O)N[C@@H](CCCNC(=N)N)C(=O)N[C@H](C(=O)NCC(=O)N[C@@H](CCCNC(=N)N)C(=O)N[C@@H](CO)C(=O)N[C@@H](CCCNC(=N)N)C(=O)N[C@@H](Cc1c[nH]c2ccccc12)C(=O)N[C@@H](CCCNC(=N)N)C(=O)N[C@@H](CC(=O)O)C(=O)N[C@@H](Cc1c[nH]c2ccccc12)C(=O)N[C@@H](CO)C(=O)N[C@@H](CCCNC(=N)N)C(=O)N[C@@H](CC(N)=O)C(=O)N[C@@H](Cc1ccccc1)C(=O)N[C@@H](CCSC)C(=O)N[C@@H](CCCNC(=N)N)C(N)=O)[C@@H](C)O)C(C)C)[C@@H](C)O [Peptide 67] (Stearoyl-TRVSRTGRSRWRDWSRNFMR-NH2) |  |  |  |  |  |  |  | dose response of reduction of IL-12 release | 64 µg/mL (≈ 22.2 µM) | 64 µg/mL (≈ 22.2 µM) | 
CCCCCCCCCCCC(=O)N[C@@H](CCCNC(=N)N)C(=O)N[C@@H](CO)C(=O)N[C@@H](CCCNC(=N)N)C(=O)N[C@@H](Cc1c[nH]c2ccccc12)C(=O)N[C@@H](CCCNC(=N)N)C(=O)N[C@@H](CC(=O)O)C(=O)N[C@H](C(=O)N[C@@H](C)C(=O)N[C@@H](CCCNC(=N)N)C(=O)N[C@@H](CC(N)=O)C(=O)N[C@@H](Cc1ccccc1)C(=O)N[C@@H](CCSC)C(=O)N[C@@H](CCCNC(=N)N)C(N)=O)C(C)C [Peptide 88, Lauryl-RSRWRDVARNFMR-NH2] (Lauroyl-RSRWRDVARNFMR-NH2) |  |  |  | 25 µg·days/mL | 3b ug/mL | 3b ug/mL | 32e ug/mL |  |  |  | 
CSCC[C@@H](NC(=O)[C@@H](Cc1ccccc1)NC(=O)[C@@H](CC(N)=O)NC(=O)[C@@H](CCCNC(=N)N)NC(=O)[C@@H](CO)NC(=O)[C@@H](Cc1c[nH]c2ccccc12)NC(=O)[C@@H](CC(=O)O)NC(=O)[C@@H](CCCNC(=N)N)NC(=O)[C@@H](Cc1c[nH]c2ccccc12)NC(=O)[C@@H](CCCNC(=N)N)NC(=O)[C@@H](CO)NC(=O)[C@@H](CCCNC(=N)N)NC(C)=O)C(=O)N[C@H](CCCNC(=N)N)C(N)=O [Peptide 95, Ac-rsrwrdwsrnfmr-NH2] (Ac-[dR][dS][dR][dW][dR][dD][dW][dS][dR][dN][dF][dM][dR]-NH2) |  |  |  | 12.5 µg·days/mL | 12.5b ug/mL | 6b ug/mL | 16e ug/mL |  |  |  | 
H2N-kkkkkkkkaatrvartgrsrwrdvarnfmr-NH2 (KKKKKKKKAATRVARTGRSRWRDVARNFMR; N-terminal amine, C-terminal amide) [Peptide 55] |  |  |  |  |  |  |  |  |  |  | > 20 µM
